Assays:
[1] = test system: sea lice larvae and copepodids; assay: Sea lice larvae and copepodids viability bioassay; assay type: in vivo, Lepeophtheirus salmonis salmonis; conditions: 70 ppm, positive control
Method: The assay consisted on incubating sea lice (Lepeophtheirus salmonis salmonis) larvae and copepodids with PF-11 secretome in order to evaluate the viability of the larvae and copepodids compared to a blank control. Sodium hypocholorite (NaoCl), known to kill the larvae within 40 min at 70 ppm, was used as a positive control. Larvae were obtained by sedating salmon sea lice with Benzocain, harvesting egg strings with tweezers, and transferring the strings to a water bath placed in an incubator. Inside the incubator, the water was continuously changed throughout the incubation period. When the larvae were developed, they were removed from the incubator and used in the bioassay. Copepodids were developed from egg strings from sea lice as described for larvae. Seawater containing louse larvae and copepodids was placed in a petri dish and PF-11 secretome was added to the final pretended concentration. Larvae and copepodids in seawater with no added compounds were also used for comparison. The positive control was NaOCl at 70 ppm. The larvae and copepodids viability was checked over time. An evaluation of larvae viability was performed and compared to the viability in the blank controls. The viability in the pure seawater control and the medium blank control was monitored and compared and remained the same throughout the experiment.

[2] = test system: sea lice larvae and copepodids; conditions: 70 ppm; cited from earlier work
[3] = test system: Strain PF-11; assay type: cell-based, Pseudomonas putida; conditions: CLSI standards, EUCAST resistance breakpoints
Method: MICS (Minimum Inhibitory Concentration) was determined by agar dilution and disk diffusion according to CLSI standards (CLSI, M02-A10; CLSI, M100-S21). Briefly, LA plates were prepared supplemented with serial dilutions of the antibiotic to be tested to determine the MIC. The lowest antibiotic concentration preventing growth of the strain is considered the MIC value. The strain Escherichia coli ATCC 25922 was used as control strain, as recommended.

[4] = test system: extracellular proteases of PF-11 and NTC secretomes; assay type: biochemical; conditions: 10 mM inhibitor, relatively to non-treated control
Method: Briefly, 12% SDS-polyacrylamide gels (Laemmli 1970) were co-polymerized with 1% casein or gelatin at 4° C. Non reducing loading buffer (62.5 mM Tris, 2% SDS, 10% glycerol, 0.001% bromophenol blue) was added to secretome samples prior to loading. Electrophoresis was performed at 4° C. and 100 V until the bromophenol dye reached the bottom of the gel. After electrophoresis, gels were rinsed two times in 2.5% (v/v) Triton X-100, 30 min each, for SDS removal, followed by three washes, 5 min each, in deionized water. Gels were then incubated in activation buffer (0.1M Tris-HCl, 0.01M CaCl2, pH 8), at 37° C. for enzyme renaturation and subsequent proteolytic activity. The gels were washed three times, 5 min each, in deonized water prior to incubation for 1 h in Coomassie Brilliant Blue R-250. […] Protease activity was visible as clear bands on a blue background. […] Protease inhibition by phenyl methyl sulfonyl fluoride (PMSF) and EDTA was determined as described by Bertolini and Rohovec (Bertolini and Rohovec 1992).
Further evaluations of the type of proteases present in the extracellular protease producers were performed by selective inhibition of serine proteases by PMSF and of metallo-proteases by EDTA.

Structure (SMILES)	susceptibility of strain PF-11 [3]	further results
[Na+].[O-]Cl [NaOCl, Sodium hypocholorite]		required time to become 100% effective [1]: 20 min; time to kill the larvae [2]: ≤ 40 min
CC1(C)S[C@@H]2[C@H](NC(=O)[C@H](N)c3ccccc3)C(=O)N2[C@H]1C(=O)O [ampicilin]	resistant	
C[C@H]1[C@H](NC(=O)/C(=N\OC(C)(C)C(=O)O)c2csc(N)n2)C(=O)N1S(=O)(=O)O [aztreonam]	resistant	
CC(C)(O/N=C(\C(=O)N[C@@H]1C(=O)N2C(C(=O)[O-])=C(C[n+]3ccccc3)CS[C@H]12)c1csc(N)n1)C(=O)O [ceftazidime]	resistant	
CO[C@@]1(NC(=O)Cc2cccs2)C(=O)N2C(C(=O)O)=C(COC(N)=O)CS[C@@H]21 [cefoxitine]	resistant	
CO/N=C(\C(=O)N[C@@H]1C(=O)N2C(C(=O)O)=C(COC(C)=O)CS[C@H]12)c1csc(N)n1 [cefotaxime]	resistant	
O=S(=O)(F)Cc1ccccc1 [PMSF, phenyl methyl sulfonyl fluoride]		inhibition of proteolytic activity of PF-11 and NTC secretomes [4]: significantly lower inhibitory effects
O=C(O)CN(CCN(CC(=O)O)CC(=O)O)CC(=O)O [EDTA]		inhibition of proteolytic activity of PF-11 and NTC secretomes [4]: strongly inhibited
CC1(C)S[C@@H]2[C@H](NC(=O)[C@H](N)c3ccc(O)cc3)C(=O)N2[C@H]1C(=O)O [amoxycillin]	resistant	

From patent US20240400972A1, “Antifouling Composition and Process for Production Thereof” (priority 2015, published 2024)
